The values that follow come from patent US9187518B2, “Antiangiogenic brassinosteroid compounds” (CONSEJO NACIONAL DE INVESTIGACIONES CIENTIFICAS Y TECNICAS …, priority 2011, dated 2015).

Each structure is given as a SMILES string. pIC50: −log10 of the molar value.

One test relates to HUVEC cells. The test can be described thus: Capillary tube formation on a Matrigel. Conditions: for formation of capillary tube like structures: 20 μM and 40 μM, comparative assay; for antiangiogenic activity in the tube-like formation assay in HUVEC cells: overall conclusion. Type of test: cell-based, human. The protocol: The formation of capillary tube like structures by HUVEC cells was analyzed on 24-well cell culture plates coated with an extracellular membrane matrix (Matrigel; BD Biosciences).
Matrigel was thawed at 4° C. Using precooled plates and tips, 100 μl/well of Matrigel was distributed and allowed to gelify at 37° C. for at least 30 min. Cells were seeded on the polymerized Matrigel (5 to 8×10^4 cells/well). The plate was incubated at 37° C., and tube formation was observed under a optic inverted microscope. Digital pictures were taken at different times with a camera. Tubular structures were quantified by manual counting of low power fields (25×) and inhibition percentage was expressed using untreated wells as 100%.
The formation of capillary tube-like structures by HUVEC cells was analyzed on 24-well cell culture plates coated with an extracellular membrane matrix (Matrigel; BD Biosciences). Matrigel was thawed at 4° C. Using precooled plates and tips, 100 μl/well of Matrigel was distributed and allowed to gelify at 37° C. for at least 30 min. Cells were seeded on the polymerized Matrigel (5 to 8×10^4 cells/well) in absence and presence of concentrations of 20 μM and 40 μM of each compound. The plate was incubated at 37° C., and tube formation was observed under an optic inverted microscope. Compound 1 was used as positive control.

Test [1] relates to TNF-α. The following applies: LPS-stimulated macrophages in vitro; earlier work; cited from earlier work.
Another test deals with HSV-1. Conditions: murine model of HSV-1 corneal infection; previously reported; cited from earlier work.
Test [2] concerns IL-6. Conditions: human epithelial cells derived from ocular tissues; earlier work; cited from earlier work.
Test [3] has as its system TNF-α. The following applies: human epithelial cells derived from ocular tissues; earlier work; cited from earlier work.
Test [4] has as its system IL-6. Kind of test: IL-6 secretion in LPS-stimulated J774A.1 macrophages (ELISA). The following applies: J774A.1 stimulated with 100 ng/ml LPS 8 h, 40 μM. The format is cell-based, murine. As for the experimental part: J774A.1 cells grown in 24-well plates were incubated at 37° C. with 100 ng/ml of LPS, in duplicate. After 8 h, supernatants were harvested and murine IL-6 was quantified by commercial ELISA sets (BD OptEIA™, Becton Dickinson, USA) according to manufacturer instructions.

The subject of the next test is NF-κB p65 subunit. Kind of test: NF-κB p65 nuclear translocation in LPS-stimulated J774A.1 cells (IFI). The format is cell-based, murine. Conditions: J774A.1 induced with LPS 8 h, 40 μM (LPS only 79.4±1.2). As for the experimental part: J774A.1 cells were grown on coverslips in 24-well plates and stimulated with 100 ng/ml LPS (Sigma) in RPMI without SFB, for 8 h at 37° C.
After incubation, cells were fixed in methanol at −20° C. for 10 min, and processed for indirect immunofluorescence (IFI) with antibodies directed against the glycoprotein D (gD) of HSV-1 and/or the p65 subunit of NF-κB. After three washes with PBS, the coverslips were inverted on a drop of a 1/100 dilution of the first antibody, mouse monoclonal anti-gD and/or rabbit polyclonal anti p65 (Santa Cruz Biotechnology) and incubated for 30 min at 37° C., and then subjected to three additional washes with PBS. […]
The images obtained with a 40× magnification were imported into NIH Image J 1.34s program (designed by Wayne Rasband, NIMH, Bethesda). […] We analyzed the total and nuclear fluorescence of the individual cells and a mean fluorescence density was obtained for each. To compare the distribution of fluorescence within the cell, the results were analyzed in a spreadsheet (Excel®). The total fluorescence intensity or nuclear density was calculated as the total or nuclear average per total or nuclear area, respectively. Then, we calculated the percentage of nuclear intensity or the percentage of nuclear intensity with respect to the total intensity for each cell. […]

Test [5] has as its system TNF-α. The test can be described thus: TNF-α secretion in LPS-activated macrophages. Conditions: Macrophage, read-out: inhibitory concentration 50% (IC50), TNF-α secretion. The format is cell-based.

Turning to `CC[C@@H](C(C)C)[C@H](O)[C@@H](O)[C@@H](C)[C@H]1CC[C@H]2[C@@H]3CCC4=CC(=O)C=C[C@]4(C)[C@H]3CC[C@]12C` [Compound 2, (22S,23S)-22,23-dihydroxystigmasta-1,4-dien-3-one], the “formation of capillary tube like structures” value in the test on HUVEC cells is listed as “showed inhibitory activity”.
With `CC[C@@H](C(C)C)[C@H](O)[C@@H](O)[C@@H](C)[C@H]1CC[C@H]2[C@@H]3CC(=O)[C@@]4(O)C[C@@H](Br)CC[C@]4(C)[C@H]3CC[C@]12C` [Compound 6b, (22S,23S)-3β-bromo-5α,22,23-trihydroxystigmastan-6-one], the “production of TNF-α” value in the test with TNF-α [1] was “hinders”. For the same compound, in the test with HSV-1, the “anti-HSV-1 activity in vivo” value was “does not exert an anti-HSV-1 activity in vivo” and the “incidence of HSK” value is on record as “significantly decreases”. For the same compound, the “secretion of IL-6” value in the test on IL-6 [2] is “modulates”. Besides, the “secretion of TNF-α” value in the test on TNF-α [3] is “modulates”.
As to `CC[C@@H](C(C)C)[C@H](O)[C@@H](O)[C@@H](C)[C@H]1CCC2C3C[C@H](F)C4=CC(=O)CC[C@]4(C)C3CC[C@@]21C` (stereo partly shown) [Compound III], in the test on HUVEC cells, the “formation of capillary tube like structures” value is on record as “develop the formation of capillary tube-like structures in same manner than control cells without treatment” and the “antiangiogenic activity in the tube-like formation assay in HUVEC cells” value is listed as “not present”.
With `CC[C@@H](C(C)C)[C@H](O)[C@@H](O)[C@@H](C)[C@H]1CCC2C3C[C@H](F)C4=CC(=O)C=C[C@]4(C)C3CC[C@@]21C` (stereo partly shown) [Compound IV], in the test on HUVEC cells, the “formation of capillary tube like structures” value was “develop the formation of capillary tube-like structures in same manner than control cells without treatment” and the “antiangiogenic activity in the tube-like formation assay in HUVEC cells” value is “not present”.
As to `C[C@@H]1C[C@H]2[C@@H]3CCC4=CC(=O)C=C[C@]4(C)[C@@]3(F)[C@@H](O)C[C@]2(C)[C@@]1(O)C(=O)CO` [DEX, Dexamethasone, reference compound], the IL-6 level with IL-6 [4] is 637.1 ± 3.8 pg/mL. Further, the “percentage of cells positive for NF-κB translocation to the nucleus” value in the test on NF-κB p65 subunit is on record as 100%. The pIC50 in the test with TNF-α [5] was 4.32.
